Reference: patent US7317037B2, “Progesterone receptor modulators comprising pyrrole-oxindole derivatives and uses thereof” (Wyeth, priority 2004, dated 2008)

These compounds were tested against T1, progesterone receptor (PR) (Homo sapiens, UniProt P06401) (assay: T47D cell alkaline phosphatase assay (antagonist mode)). Details: T47D cells, antagonist mode in the presence of 1 nM progesterone, 24 hours; read-out: IC50 (nM), T47D Cell Alkaline Phosphatase Assay.
T1 construct: Effects of Progestins and Antiprogestins on Alkaline Phosphatase Activity in T47D Cells; endogenous in cells; host or cells: T47D cells
T1 sequence (P06401 1-933): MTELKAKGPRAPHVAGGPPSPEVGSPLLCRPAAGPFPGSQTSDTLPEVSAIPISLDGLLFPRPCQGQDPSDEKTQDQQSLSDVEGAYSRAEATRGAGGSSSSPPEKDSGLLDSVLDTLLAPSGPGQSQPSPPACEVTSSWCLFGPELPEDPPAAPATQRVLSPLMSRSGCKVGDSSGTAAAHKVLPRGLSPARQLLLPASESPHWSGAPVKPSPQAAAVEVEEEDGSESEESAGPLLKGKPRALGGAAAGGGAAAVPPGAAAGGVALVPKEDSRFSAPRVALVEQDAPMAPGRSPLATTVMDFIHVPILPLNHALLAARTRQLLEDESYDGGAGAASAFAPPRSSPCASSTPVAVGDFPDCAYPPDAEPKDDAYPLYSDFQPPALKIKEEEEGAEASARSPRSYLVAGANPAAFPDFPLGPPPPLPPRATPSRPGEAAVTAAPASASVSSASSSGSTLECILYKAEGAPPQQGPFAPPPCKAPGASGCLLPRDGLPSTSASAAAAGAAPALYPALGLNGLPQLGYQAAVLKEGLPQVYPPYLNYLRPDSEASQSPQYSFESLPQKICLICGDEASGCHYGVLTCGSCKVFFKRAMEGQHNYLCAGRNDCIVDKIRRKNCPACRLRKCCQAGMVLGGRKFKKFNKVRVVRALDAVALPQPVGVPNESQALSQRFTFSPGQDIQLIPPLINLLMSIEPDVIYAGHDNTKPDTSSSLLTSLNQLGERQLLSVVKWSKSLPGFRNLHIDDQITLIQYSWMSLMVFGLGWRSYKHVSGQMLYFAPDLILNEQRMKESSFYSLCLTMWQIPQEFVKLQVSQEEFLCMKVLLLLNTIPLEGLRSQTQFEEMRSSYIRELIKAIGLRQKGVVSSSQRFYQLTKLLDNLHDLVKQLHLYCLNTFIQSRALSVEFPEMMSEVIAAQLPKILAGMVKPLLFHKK
Assay type: cell-based
Description: A. Effects of Progestins and Antiprogestins on Alkaline Phosphatase Activity in T47D Cells (T47D Alkaline Phosphatase Assay)
Culture medium: DMEM:F12 (1:1) (GIBCO, BRL) supplemented with 5% (v/v) charcoal stripped fetal bovine serum (not heat-inactivated), 100 U/mL penicillin, 100 μg/mL streptomycin, and 2 mM GlutaMax (GIBCO, BRL).
Alkaline phosphatase assay buffer: I. 0.1M Tris-HCl, pH 9.8, containing 0.2% Triton X-100, 0.1M Tris-HCl, pH 9.8, containing 4 mM p-nitrophenyl phosphate (Sigma).
2. Cell Culture and Treatment:
Frozen T47D cells are thawed in a 37° C. water bath and diluted to 280,000 cells/mL in culture medium. To each well in a 96-well plate (Falcon, Becton Dickinson Labware), 180 μl of diluted cell suspension is added. Twenty μl of reference or test compounds diluted in the culture medium is then added to each well. When testing for progestin antagonist activity, reference antiprogestins or test compounds are added in the presence of 1 nM progesterone. The cells are incubated at 37° C. in a 5% CO2 humidified atmosphere for 24 hours. For high throughput screening, one concentration of each compound will be tested at 0.3 μg/mL. Based on an average molecular weight of 300 g/mol for the compounds in the library, the concentration is approximately 1 μM. Subsequently, active compounds will be tested in dose response assays to determine EC50 and IC50.
3. Alkaline Phosphatase Enzyme Assay:
At the end of treatment, the medium is removed from the plate. Fifty μl of assay buffer I is added to each well. The plates are shaken in a titer plate shaker for 15 min. Then 150 μl of assay buffer II is added to each well. Optical density measurements are taken at 5 min intervals for 30 min at a test wavelength of 405 nm.
4. Analysis of Dose-Response Data.
For reference and test compounds, a dose response curve is generated for dose vs. the rate of enzyme reaction (slope). Square root-transformed data are used for analysis of variance and nonlinear dose response curve fitting for both agonist and antagonist modes. Huber weighting is used to down-weight the effects of outliers. EC50 or IC50 values are calculated from the retransformed values. JMP software (SAS Institute, Inc.) is used for both one-way analysis of variance and non-4 linear dose response analysis in both single dose and dose response studies.
Progesterone and trimegestone are reference progestins and RU486 is the reference antiprogestin. All reference compounds are run in full dose response curves and the EC50 and IC50 values are calculated.

Row | SMILES | IC50
1 | C=CCN1C(=O)C(C)(C)c2cc(-c3ccc(C#N)n3C)cc(F)c21 [5-(1-allyl-7-fluoro-3,3-dimethyl-2-oxo-2,3-dihydro-1H-indol-5-yl)-1-methyl-1H-pyrrole-2-carbonitrile] | 4.5 nM
2 | Cn1c(C#N)ccc1-c1cc(F)c2c(c1)C(C)(C)C(=O)N2Cc1ccccc1 [5-(1-benzyl-7-fluoro-3,3-dimethyl-2-oxo-2,3-dihydro-1H-indol-5-yl)-1-methyl-1H-pyrrole-2-carbonitrile] | 164 nM
3 | Cn1c(C#N)ccc1-c1cc(F)c2c(c1)C(C)(C)C(=O)N2C1CCCCC1 [5-(1-cyclohexyl-7-fluoro-3,3-dimethyl-2-oxo-2,3-dihydro-1H-indol-5-yl)-1-methyl-1H-pyrrole-2-carbonitrile] | 194 nM
4 | Cn1c(C#N)ccc1-c1cc(F)c2c(c1)C(C)(C)C(=O)N2C1CCCC1 [5-(1-cyclopentyl-7-fluoro-3,3-dimethyl-2-oxo-2,3-dihydro-1H-indol-5-yl)-1-methyl-1H-pyrrole-2-carbonitrile] | 25.2 nM
5 | CCN1C(=O)C(C)(C)c2cc(-c3ccc(C#N)n3C)cc(F)c21 [5-(1-ethyl-7-fluoro-3,3-dimethyl-2-oxo-2,3-dihydro-1H-indol-5-yl)-1-methyl-1H-pyrrole-2-carbonitrile] | 29.5 nM
6 | CCC1(CC)C(=O)Nc2c(F)cc(-c3ccc(C#N)n3C)cc21 [5-(3,3-diethyl-7-fluoro-2-oxo-2,3-dihydro-1H-indol-5-yl)-1-methyl-1H-pyrrole-2-carbonitrile] | 4.95 nM
7 | Cn1c(C#N)ccc1-c1ccc2c(c1F)C(C)(C)C(=O)N2 [5-(4-fluoro-3,3-dimethyl-2-oxo-2,3-dihydro-1H-indol-5-yl)-1-methyl-1H-pyrrole-2-carbonitrile] | 30 nM
8 | Cn1c(C#N)ccc1-c1ccc2c(c1F)C1(CC1)C(=O)N2 [5-(4′-fluoro-2′-oxo-1′,2′-dihydrospiro[cyclopropane-1,3′-indol]-5′yl)-1-methyl-1H-pyrrole-2-carbonitrile] | 7.8 nM
9 | CN1C(=O)C(C)(C)c2cc(-c3ccc(C#N)n3C)cc(F)c21 [5-(7-Fluoro-1,3,3-trimethyl-2-oxo-2,3-dihydro-1H-indol-5-yl)-1-methyl-1H-pyrrole-2-carbonitrile] | 22.3 nM
10 | CC(C)CN1C(=O)C(C)(C)c2cc(-c3ccc(C#N)n3C)cc(F)c21 [5-(7-fluoro-1-isobutyl-3,3-dimethyl-2-oxo-2,3-dihydro-1H-indol-5-yl)-1-methyl-1H-pyrrole-2-carbonitrile] | 29.9 nM
11 | CC(C)N1C(=O)C(C)(C)c2cc(-c3ccc(C#N)n3C)cc(F)c21 [5-(7-fluoro-1-isopropyl-3,3-dimethyl-2-oxo-2,3-dihydro-1H-indol-5-yl)-1-methyl-1H-pyrrole-2-carbonitrile] | 13 nM
12 | Cn1c(C#N)ccc1-c1cc(F)c2c(c1)CC(=O)N2 [5-(7-fluoro-2-oxo-2,3-dihydro-1H-indol-5-yl)-1-methyl-1H-pyrrole-2-carbonitrile] | 109 nM
13 | C#CCN1C(=O)C(C)(C)c2cc(-c3ccc(C#N)n3C)cc(F)c21 [5-(7-fluoro-3,3-dimethyl-2-oxo-1-prop-2-yn-1-yl-2,3-dihydro-1H-indol-5-yl)-1-methyl-1H-pyrrole-2-carbonitrile] | 30 nM
14 | CCCN1C(=O)C(C)(C)c2cc(-c3ccc(C#N)n3C)cc(F)c21 [5-(7-fluoro-3,3-dimethyl-2-oxo-1-propyl-2,3-dihydro-1H-indol-5-yl)-1-methyl-1H-pyrrole-2-carbonitrile] | 26.5 nM
15 | CC1(C)C(=O)Nc2c(F)cc(-c3ccc(C#N)[nH]3)cc21 [5-(7-fluoro-3,3-dimethyl-2-oxo-2,3-dihydro-1H-indol-5-yl)-1H-pyrrole-2-carbonitrile] | 107 nM
16 | Cn1c(C#N)ccc1-c1cc(F)c2c(c1)C1(CCC1)C(=O)N2 [5-(7′-fluoro-2′-oxo-1′,2′-dihydrospiro[cyclobutane-1,3′-indol]-5′-yl)-1-methyl-1H-pyrrole-2-carbonitrile] | 2.75 nM
17 | Cn1c(C#N)ccc1-c1cc(F)c2c(c1)C1(CCCC1)C(=O)N2 [5-(7′-fluoro-2′-oxo-1′,2′-dihydrospiro[cyclopentane-1,3′-indol]-5′-yl)-1-methyl-1H-pyrrole-2-carbonitrile] | 3.2 nM
18 | Cn1c(C#N)ccc1-c1cc(F)c2c(c1)C1(CC1)C(=O)N2 [5-(7′-fluoro-2′-oxo-1′,2′-dihydrospiro[cyclopropane-1,3′-indol]-5′-yl)-1-methyl-1H-pyrrole-2-carbonitrile] | 10.8 nM
19 | Cn1c(C#N)ccc1-c1cc(F)c2c(c1)C(C)(C)C(=O)N2CCc1ccccc1 [5-[7-fluoro-3,3-dimethyl-2-oxo-1-(2-phenylethyl)-2,3-dihydro-1H-indol-5-yl]-1-methyl-1H-pyrrole-2-carbonitrile] | 351 nM
20 | COC(=O)CN1C(=O)C(C)(C)c2cc(-c3ccc(C#N)n3C)cc(F)c21 [methyl [5-(5-cyano-1-methyl-1H-pyrrol-2-yl)-7-fluoro-3,3-dimethyl-2-oxo-2,3-dihydro-1H-indol-1-yl]acetate] | 48 nM
21 | CC(C)(C)OC(=O)n1c(C#N)ccc1-c1cc(F)c2c(c1)C(C)(C)C(=O)N2 [tert-butyl 2-cyano-5-(7-fluoro-3,3-dimethyl-2-oxo-2,3-dihydro-1H-indol-5-yl)-1H-pyrrole-1-carboxylate] | 125 nM
